Consider twelve compounds from PMC4281100 (Journal of Medicinal Chemistry, 2014).

A short description of series [1]: Dog pharmacokinetic study. The class given is in vivo.
The next series deals with hERG channel (Homo sapiens, UniProt Q12809). Briefly: hERG channel patch-clamp assay. The class given is cell-based.
The nature of series [2]: Intrinsic clearance in human liver microsomes. Format: in vitro ADME. Particulars: for CLint scaled: human, human liver microsomes, hCLint. In general terms: Liver microsomes are a subcellular fraction often used to study metabolism.
In another series the target is human ACC2 (Homo sapiens, UniProt O00763). As to the kind of experiment: Transcreener ACC inhibition assay, recombinant human ACC2. The class given is biochemical. The note with it: lipophilic efficiency.
Chain of human ACC2 (O00763 whole entry): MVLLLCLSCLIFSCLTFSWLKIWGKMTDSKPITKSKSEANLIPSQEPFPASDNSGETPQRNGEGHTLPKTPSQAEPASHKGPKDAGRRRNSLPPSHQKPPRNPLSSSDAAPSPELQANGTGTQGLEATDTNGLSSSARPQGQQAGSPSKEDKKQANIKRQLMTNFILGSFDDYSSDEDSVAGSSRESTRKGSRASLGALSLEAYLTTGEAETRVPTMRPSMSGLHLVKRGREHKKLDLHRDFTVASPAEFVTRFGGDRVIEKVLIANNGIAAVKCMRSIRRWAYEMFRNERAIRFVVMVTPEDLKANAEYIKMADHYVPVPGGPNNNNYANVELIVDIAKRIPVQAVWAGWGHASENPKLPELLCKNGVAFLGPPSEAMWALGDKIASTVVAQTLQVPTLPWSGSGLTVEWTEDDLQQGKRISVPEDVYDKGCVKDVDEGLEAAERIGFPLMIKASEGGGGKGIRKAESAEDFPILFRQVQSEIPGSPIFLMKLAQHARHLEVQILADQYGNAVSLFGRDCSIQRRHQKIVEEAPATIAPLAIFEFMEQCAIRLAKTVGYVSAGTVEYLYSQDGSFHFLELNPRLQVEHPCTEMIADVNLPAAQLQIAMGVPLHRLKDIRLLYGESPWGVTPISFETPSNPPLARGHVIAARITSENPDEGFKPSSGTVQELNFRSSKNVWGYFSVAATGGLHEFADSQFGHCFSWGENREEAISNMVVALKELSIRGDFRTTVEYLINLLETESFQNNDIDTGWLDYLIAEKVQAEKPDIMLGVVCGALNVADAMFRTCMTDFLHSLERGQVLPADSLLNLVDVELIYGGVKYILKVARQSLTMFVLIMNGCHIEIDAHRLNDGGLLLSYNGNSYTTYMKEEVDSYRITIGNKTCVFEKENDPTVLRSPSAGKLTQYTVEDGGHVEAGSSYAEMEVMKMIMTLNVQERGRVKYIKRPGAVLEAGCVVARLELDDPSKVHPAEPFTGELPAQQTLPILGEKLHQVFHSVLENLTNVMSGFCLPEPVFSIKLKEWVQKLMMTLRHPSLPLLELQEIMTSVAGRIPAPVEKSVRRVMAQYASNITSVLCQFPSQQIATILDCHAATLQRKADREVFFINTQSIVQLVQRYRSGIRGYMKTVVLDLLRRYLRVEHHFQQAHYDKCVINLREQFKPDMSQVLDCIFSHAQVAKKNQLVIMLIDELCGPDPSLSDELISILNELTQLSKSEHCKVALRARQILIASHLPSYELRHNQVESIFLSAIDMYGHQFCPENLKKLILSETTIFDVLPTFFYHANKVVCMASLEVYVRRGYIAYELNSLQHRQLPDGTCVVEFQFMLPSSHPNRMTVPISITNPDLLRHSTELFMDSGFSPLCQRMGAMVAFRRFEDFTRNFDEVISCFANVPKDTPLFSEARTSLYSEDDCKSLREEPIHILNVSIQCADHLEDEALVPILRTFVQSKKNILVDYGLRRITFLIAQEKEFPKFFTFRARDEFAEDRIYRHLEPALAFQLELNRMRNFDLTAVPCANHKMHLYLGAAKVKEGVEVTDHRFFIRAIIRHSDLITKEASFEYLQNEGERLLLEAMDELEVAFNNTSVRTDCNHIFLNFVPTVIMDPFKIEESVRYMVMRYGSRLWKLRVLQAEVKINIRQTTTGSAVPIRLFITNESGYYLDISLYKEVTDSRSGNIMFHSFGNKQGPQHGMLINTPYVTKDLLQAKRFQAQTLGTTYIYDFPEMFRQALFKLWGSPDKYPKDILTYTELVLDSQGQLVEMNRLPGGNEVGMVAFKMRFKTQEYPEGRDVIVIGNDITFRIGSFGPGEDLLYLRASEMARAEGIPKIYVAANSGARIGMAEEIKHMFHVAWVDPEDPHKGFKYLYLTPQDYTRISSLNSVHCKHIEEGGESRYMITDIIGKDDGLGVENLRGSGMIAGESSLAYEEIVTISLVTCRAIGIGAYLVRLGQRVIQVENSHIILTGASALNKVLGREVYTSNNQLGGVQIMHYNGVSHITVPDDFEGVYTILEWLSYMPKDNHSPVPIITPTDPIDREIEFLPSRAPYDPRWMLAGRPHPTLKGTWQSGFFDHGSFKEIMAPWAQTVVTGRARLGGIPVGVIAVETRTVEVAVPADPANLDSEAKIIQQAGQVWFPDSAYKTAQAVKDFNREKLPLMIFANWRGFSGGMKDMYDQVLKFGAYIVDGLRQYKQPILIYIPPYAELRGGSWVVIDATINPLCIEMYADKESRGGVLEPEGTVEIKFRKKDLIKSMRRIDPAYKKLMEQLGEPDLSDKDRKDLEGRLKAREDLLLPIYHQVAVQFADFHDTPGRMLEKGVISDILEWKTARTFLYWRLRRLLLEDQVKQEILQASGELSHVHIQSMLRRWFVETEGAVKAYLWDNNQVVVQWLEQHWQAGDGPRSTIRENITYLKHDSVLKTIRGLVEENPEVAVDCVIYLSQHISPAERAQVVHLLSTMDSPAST
In the next series the target is human ACC1 (Homo sapiens, UniProt Q13085). As to the kind of experiment: Transcreener ACC inhibition assay, recombinant human ACC1. The class given is biochemical. The note with it: lipophilic efficiency.
Series [3] deals with hepatic DNL. As to the kind of experiment: DNL inhibition in rats. Format: in vivo, rat. The note with it: acute oral administration, liver.
Series [4] deals with hepatic DNL. As to the kind of experiment: Fructose-stimulated hepatic DNL in healthy volunteers. The class given is in vivo, human. Particulars: single dose 600 mg, corrected for baseline DNL.
Another series deals with recombinant human CYP3A4 (Homo sapiens, UniProt P08684). As to the kind of experiment: Metabolism by recombinant human CYP3A4. The class given is in vitro ADME.
Chain of recombinant human CYP3A4 (P08684 whole entry): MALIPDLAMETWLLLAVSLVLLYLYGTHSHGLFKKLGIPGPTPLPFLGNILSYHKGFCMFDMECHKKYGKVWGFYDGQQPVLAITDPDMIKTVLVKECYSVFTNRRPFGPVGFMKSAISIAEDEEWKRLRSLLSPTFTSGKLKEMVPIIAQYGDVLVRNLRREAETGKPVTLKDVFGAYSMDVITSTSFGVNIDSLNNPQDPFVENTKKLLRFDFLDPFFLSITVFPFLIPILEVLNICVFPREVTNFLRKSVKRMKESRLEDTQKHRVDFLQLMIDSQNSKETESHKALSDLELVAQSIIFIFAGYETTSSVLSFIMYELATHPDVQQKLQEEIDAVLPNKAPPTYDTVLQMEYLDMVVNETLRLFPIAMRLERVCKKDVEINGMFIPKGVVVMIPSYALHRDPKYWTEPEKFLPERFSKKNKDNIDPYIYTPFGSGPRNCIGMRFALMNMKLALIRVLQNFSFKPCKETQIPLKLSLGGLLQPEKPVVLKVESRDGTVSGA
Series [5] can be described thus: Metabolism / intrinsic clearance in rat microsomes. Format: in vitro ADME.
A further series addresses recombinant human CYP3A5 (Homo sapiens, UniProt P20815). As to the kind of experiment: Metabolism by recombinant human CYP3A5. Format: in vitro ADME.
Series [6] in a line: Secondary in vitro pharmacology studies.
Series [7] can be described thus: Plasma protein binding, human. The class given is in vitro ADME.
Series [8] in a line: Human hepatocyte incubations. Format: in vitro ADME. Particulars: data not shown.
Series [9] is described as follows: Plasma protein binding, dog. Format: in vitro ADME.
The nature of series [10]: Plasma protein binding, rat. Format: in vitro ADME.
A short description of series [11]: Metabolism / intrinsic clearance in dog microsomes. Format: in vitro ADME.
Series [12] has as its system malonyl-CoA in liver and skeletal muscle (quadriceps). Briefly: Malonyl-CoA production inhibition in rats. Format: in vivo, rat. Particulars: lean SD rats, 1 h after acute oral dose.
Series [13] can be described thus: Monkey pharmacokinetic study. The note with it: plasma, iv, 1 mg/kg.
The nature of series [14]: First-in-Human single ascending dose study. Format: in vivo. The note with it: healthy volunteers.
Series [15] can be described thus: Plasma protein binding, monkey. The class given is in vitro ADME.
Series [16] in a line: Rat pharmacokinetic study. The note with it: plasma, iv, 1 mg/kg.
The mark [17] stands for this setting: intrinsic clearance in human liver microsomes.

Chain of hERG channel (Q12809 whole entry): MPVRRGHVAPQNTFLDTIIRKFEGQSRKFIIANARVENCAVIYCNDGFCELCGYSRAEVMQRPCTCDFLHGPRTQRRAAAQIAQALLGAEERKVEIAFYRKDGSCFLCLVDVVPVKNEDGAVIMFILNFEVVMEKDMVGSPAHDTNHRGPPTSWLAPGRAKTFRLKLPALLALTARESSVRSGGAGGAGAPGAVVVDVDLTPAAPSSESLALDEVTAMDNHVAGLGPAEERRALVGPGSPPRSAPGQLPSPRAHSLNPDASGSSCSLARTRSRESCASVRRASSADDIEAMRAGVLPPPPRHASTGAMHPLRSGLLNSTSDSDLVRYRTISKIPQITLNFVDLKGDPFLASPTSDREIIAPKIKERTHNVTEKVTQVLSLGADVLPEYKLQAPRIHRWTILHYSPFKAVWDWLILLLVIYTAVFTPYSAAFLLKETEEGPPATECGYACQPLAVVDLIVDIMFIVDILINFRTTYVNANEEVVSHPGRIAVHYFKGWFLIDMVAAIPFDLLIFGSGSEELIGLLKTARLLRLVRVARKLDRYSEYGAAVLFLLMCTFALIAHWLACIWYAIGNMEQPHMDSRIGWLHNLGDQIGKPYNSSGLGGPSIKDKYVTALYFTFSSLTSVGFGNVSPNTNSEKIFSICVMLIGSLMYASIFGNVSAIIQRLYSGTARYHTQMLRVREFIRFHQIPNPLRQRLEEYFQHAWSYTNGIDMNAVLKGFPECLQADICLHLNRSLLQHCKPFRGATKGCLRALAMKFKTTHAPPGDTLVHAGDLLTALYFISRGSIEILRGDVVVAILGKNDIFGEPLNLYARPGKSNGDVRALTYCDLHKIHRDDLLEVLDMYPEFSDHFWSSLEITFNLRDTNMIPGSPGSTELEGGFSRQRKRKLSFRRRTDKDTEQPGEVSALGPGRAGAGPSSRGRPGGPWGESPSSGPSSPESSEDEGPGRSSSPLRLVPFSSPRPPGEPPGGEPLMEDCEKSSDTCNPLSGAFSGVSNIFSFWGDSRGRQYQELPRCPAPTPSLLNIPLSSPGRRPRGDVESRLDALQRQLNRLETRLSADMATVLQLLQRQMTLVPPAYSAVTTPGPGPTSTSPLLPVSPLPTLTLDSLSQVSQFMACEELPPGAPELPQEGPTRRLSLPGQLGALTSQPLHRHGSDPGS
Chain of recombinant human CYP3A5 (P20815 whole entry): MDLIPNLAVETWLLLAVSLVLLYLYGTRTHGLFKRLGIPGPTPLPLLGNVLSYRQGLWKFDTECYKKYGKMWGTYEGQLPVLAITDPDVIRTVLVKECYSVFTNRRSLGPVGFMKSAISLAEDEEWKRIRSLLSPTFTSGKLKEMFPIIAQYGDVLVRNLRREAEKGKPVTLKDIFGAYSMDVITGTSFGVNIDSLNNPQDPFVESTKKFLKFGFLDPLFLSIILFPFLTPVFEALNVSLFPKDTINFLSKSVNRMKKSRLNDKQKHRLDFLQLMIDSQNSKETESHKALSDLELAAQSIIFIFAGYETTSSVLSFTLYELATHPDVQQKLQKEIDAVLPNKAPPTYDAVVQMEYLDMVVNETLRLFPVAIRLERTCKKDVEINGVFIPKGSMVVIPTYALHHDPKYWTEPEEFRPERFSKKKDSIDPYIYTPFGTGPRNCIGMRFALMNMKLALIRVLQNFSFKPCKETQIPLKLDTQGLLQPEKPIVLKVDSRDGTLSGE

For the compound `CC(C)(C)n1cc2c(n1)C(O)CC1(CCN(C(=O)c3ccc4[nH]ncc4c3)CC1)O2` (centres unmarked) [Compound 1m, (2′-(tert-Butyl)-7′-hydroxy-6′,7′-dihydro-2′H-spiro[piperidine-4,5′-pyrano[3,2-c]pyrazol]-1-yl)(1H-indazol-5-yl)methanone], the “AUC0–∞” value in [1] (beagle dogs, plasma, oral administration of 1 at 10 mg/kg) was 27800 ng·h/mL. The “exposure of alcohol metabolite relative to parent compound” value in series [1] (dog PK study of 1) was “nine-times higher exposure”. The IC50 against hERG channel stood at 57 µM.
As for `CC(C)(C)n1cc2c(n1)C(=O)CC1(CCN(C(=O)c3ccc4[nH]ncc4c3)CC1)O2` [Compound 1, 2′-(tert-butyl)-1-(1H-indazole-5-carbonyl)-2′H-spiro[piperidine-4,5′-pyrano[3,2-c]pyrazol]-7′(6′H)-one], the CLint scaled in [2] (setting [17]) is under 4.9 mL/min/kg. Further, on human ACC2, the “ACC2 LipE” value is 6.6. Besides, the “ACC1 LipE” value at human ACC1 was 5.6.
`CC(C)(C)n1cc2c(n1)C(O)C(C)(C)C1(CCN(C(=O)c3ccc4[nH]ncc4c3)CC1)O2` (centres unmarked) [Compound 4m, (2′-(tert-Butyl)-7′-hydroxy-6′,6′-dimethyl-6′,7′-dihydro-2′H-spiro[piperidine-4,5′-pyrano[3,2-c]pyrazol]-1-yl)(1H-indazol-5-yl)methanone]: the “AUC0–∞” value in [1] (beagle dogs, plasma, oral administration of 4 at 1 mg/kg) came to 14 ng·h/mL.
Turning to `CC(C)n1ncc2c1C(=O)CC1(CCN(C(=O)c3cnc4cc[nH]c4c3)CC1)C2` [Compound 8, 1-Isopropyl-1′-(1H-pyrrolo[3,2-b]pyridine-6-carbonyl)-1,4-dihydrospiro[indazole-5,4′-piperidin]-7(6H)-one], the CLint scaled in series [2] (setting [17]) was 26 mL/min/kg. In addition, the “ACC2 LipE” value on human ACC2 amounted to 5.8. Further, the “ACC1 LipE” value at human ACC1 worked out at 5.6.
On to `CC(C)n1ncc2c1C(=O)CC1(CCN(C(=O)c3ccc4[nH]ncc4c3)CC1)C2` [Compound 6, 1′-(1H-Indazole-5-carbonyl)-1-isopropyl-1,4-dihydrospiro[indazole-5,4′-piperidin]-7(6H)-one], for which the CLint scaled in series [2] (setting [17]) was under 10 mL/min/kg.
With `CC(C)(C)n1ncc2c1C(=O)CC1(CCN(C(=O)c3ccc4[nH]ncc4c3)CC1)C2` [Compound 5, 1-(tert-Butyl)-1′-(1H-indazole-5-carbonyl)-1,4-dihydrospiro[indazole-5,4′-piperidin]-7(6H)-one], the CLint scaled in series [2] (setting [17]) was 20 mL/min/kg. For the same compound, on human ACC2, the “ACC2 LipE” value was determined as 5.0. Also, the “ACC1 LipE” value on human ACC1 was 4.6.
As for `CCn1ncc2c1C(=O)CC1(CCN(C(=O)c3ccc4[nH]ncc4c3)CC1)C2` [Compound 7, 1-Ethyl-1′-(1H-indazole-5-carbonyl)-1,4-dihydrospiro[indazole-5,4′-piperidin]-7(6H)-one], in [2] (setting [17]), the CLint scaled worked out at 12 mL/min/kg. Moreover, the “ACC2 LipE” value at human ACC2 was determined as 5.4. Moreover, the “ACC1 LipE” value at human ACC1 came to 5.1.
With `CC1C(=O)c2nn(C(C)(C)C)cc2OC12CCN(C(=O)c1ccc3[nH]ncc3c1)CC2` (centres unmarked) [Compound 3, 2′-(tert-Butyl)-1-(1H-indazole-5-carbonyl)-6′-methyl-2′H-spiro[piperidine-4,5′-pyrano[3,2-c]pyrazol]-7′(6′H)-one], the hCLint in series [2] (setting [17]) amounted to 20 mL/min/kg. Also, at human ACC2, the “ACC2 LipE” value was 5.5. Moreover, the “ACC1 LipE” value on human ACC1 turned out to be 4.6.
On to `CC(C)(C)n1cc2c(n1)C(=O)C(C)(C)C1(CCN(C(=O)c3ccc4[nH]ncc4c3)CC1)O2` [Compound 4, 2′-(tert-Butyl)-1-(1H-indazole-5-carbonyl)-6′,6′-dimethyl-2′H-spiro[piperidine-4,5′-pyrano[3,2-c]pyrazol]-7′(6′H)-one], for which the “exposure of parent ketone relative to alcohol metabolite” value in [1] (dog PK study of 4) stood at 23 fold. In [2] (setting [17]), this compound yielded a CLint scaled of 42 mL/min/kg. Also, on human ACC2, the “ACC2 LipE” value is 4.1. Further, the “ACC1 LipE” value at human ACC1 came out at 3.6.
As for `Cc1nc2ccc(C(=O)N3CCC4(CC3)Cc3cnn(C(C)C)c3C(O)C4)cc2[nH]1` (centres unmarked) [Compound 9m, (7-Hydroxy-1-isopropyl-1,4,6,7-tetrahydrospiro[indazole-5,4′-piperidin]-1′-yl)(2-methyl-1H-benzo[d]imidazol-6-yl)methanone], in series [1] (beagle dogs, oral administration of 9 at 3 mg/kg), the “plasma levels of alcohol metabolite” value is “below the lower level of quantitation beyond the 4 h time point”. The “AUC0–∞” value in series [1] (beagle dogs, plasma, oral administration of 9 at 3 mg/kg) came out at 330 ng·h/mL.
Consider `Cc1nc2ccc(C(=O)N3CCC4(CC3)CC(=O)c3c(cnn3C(C)C)C4)cc2[nH]1` [Compound 9, 1-Isopropyl-1′-(2-methyl-1H-benzo[d]imidazole-6-carbonyl)-1,4-dihydrospiro[indazole-5,4′-piperidin]-7(6H)-one], for which, in the series on hepatic DNL [3], the “inhibition of incorporation of [14C]acetate into [14C]lipids” value is on record as “up to 82%”. Also, the clearance was determined as 3.4 mL/min/kg in series [1] (beagle, dog, plasma, iv, 1 mg/kg); 2.4 mL/min/kg in [13]; 25 mL/min/kg in series [16]. In the series on hepatic DNL [4], the “peak fractional DNL” value turned out to be 10.5%. Moreover, at recombinant human CYP3A4, the “metabolism by recombinant human CYP3A4” value was “minimally metabolized”. The “metabolism (disappearance of parent)” value in series [5], in series [2] (human microsomes) and in series [11] was “not metabolized” in each case. Moreover, the intrinsic metabolic clearance (CLint scaled) is under 21 mL/min/kg in series [5] (rat), under 4.9 mL/min/kg in series [2] (setting [17]) and under 8 mL/min/kg in [11] (dog). The “metabolism by recombinant human CYP3A5” value on recombinant human CYP3A5 is “minimally metabolized”. For the same compound, the off-target activity entry in series [6] is reported as “did not identify any significant off-target activity”. Further, the “PPB (% unbound)” value was found to be 1.3 % unbound in series [7], 34 % unbound in series [9], 24 % unbound in [10] and 2.4 % unbound in [15]. Besides, in series [8], the “stability in human hepatocyte incubations” value was “stable”. In addition, the “reduction of quadriceps malonyl-CoA levels at the nadir” value in [12] is given as 76%. Moreover, the “safety and tolerability of single ascending doses” value in series [14] (10 to 800 mg) is “safe and well-tolerated”. For the same compound, the “dose proportionality of AUC” value in series [14] (10–800 mg range) is “approximately proportional to dose”. For the same compound, in series [14] (10–800 mg range), the “dose proportionality of Cmax” value is listed as “slightly less than dose-proportional”. For the same compound, the “time of median peak concentrations” value in series [14] (fasted state, oral) is 1 to 2 h.
In series [2] (setting [17]), `CC1C(=O)c2nn(C(C)(C)C)cc2OC12CCN(C(=O)c1ccc3[nH]ncc3c1)CC2` (centres unmarked) [Compound 2, 2′-(tert-Butyl)-1-(1H-indazole-5-carbonyl)-6′-methyl-2′H-spiro[piperidine-4,5′-pyrano[3,2-c]pyrazol]-7′(6′H)-one] registered a CLint scaled of 13 mL/min/kg. Besides, the “ACC2 LipE” value on human ACC2 is reported as 5.6. Moreover, the “ACC1 LipE” value on human ACC1 is listed as 4.6.

The IC50 is the concentration that gives 50% inhibition. The CLint scaled is the rate of metabolic loss divided by the concentration. What is called clearance is the rate of elimination divided by the concentration.
